Data: patent US7897781B2, “Cold menthol receptor-1 antagonists” (Janssen Pharmaceutica NV, priority 2006, dated 2011)
Where “and” joins values, the source holds several entries; their conditions need not be identical. Identical values can stand only once.

Molecular target: T1, canine TRPM8 (Canis lupus familiaris, UniProt Q1A7N1)
T1 construct: expressed in transfected cells
Test: In vitro canine TRPM8 functional assay (Ca2+-sensitive dye, icilin activation; Table 4 TRPM8 Screening)
Assay type: cell-based
Settings: compound at 0.5 μM; HEK293 cells expressing canine TRPM8, icilin activation
Protocol: The functional activity of compounds of Formula (I) was determined by measuring changes in intracellular calcium concentration using a Ca^2+-sensitive fluorescent dye. The changes in fluorescent signal were monitored by a fluorescence plate reader, either a FLIPR™ (Molecular Devices) or FDSS (Hamamatsu).
HEK293 cells stably expressing canine TRPM8 were routinely grown as monolayers in Dulbecco's minimum essential medium supplemented with 10% FBS, 1 mM L-glutamine, 100 units/mL penicillin, 100 ug/mL streptomycin and 400 μg/mL G418. Cells were maintained in 5% CO2 at 37° C. At 24 hrs prior to assay, cells were seeded in clear-base poly-D-lysine coated 384-well plates (BD Biosciences, NJ, USA) at a density of 5,000 cells per well in culture medium and grown overnight in 5% CO2 at 37° C. On assay day, growth media was removed and cells were loaded with Calcium 3 Dye (Molecular Devices) for 35 min at 37° C., under 5% CO2 and then for 25 min at room temperature and atmosphere. Subsequently, cells were tested for agonist-induced increases in intracellular Ca^2+ levels using FLIPR™ or FDSS. Cells were challenged with a compound of Formula (I) (at varying concentrations) and intracellular Ca^2+ was measured for 5 min prior to the addition of icilin to all wells to achieve a final concentration which produces approximately an 80% maximal response.
Basal FI was subtracted prior to normalizing data to percent of maximal response. Curves were generated using the average of quadruplicate wells for each data point, were analyzed using nonlinear regression of either sigmoidal dose response or sigmoidal dose response (variable slope). Finally, the EC50 and IC50 values were calculated with the best-fit dose curve determined by GraphPad Prism.

T1 sequence (Q1A7N1 1-1104): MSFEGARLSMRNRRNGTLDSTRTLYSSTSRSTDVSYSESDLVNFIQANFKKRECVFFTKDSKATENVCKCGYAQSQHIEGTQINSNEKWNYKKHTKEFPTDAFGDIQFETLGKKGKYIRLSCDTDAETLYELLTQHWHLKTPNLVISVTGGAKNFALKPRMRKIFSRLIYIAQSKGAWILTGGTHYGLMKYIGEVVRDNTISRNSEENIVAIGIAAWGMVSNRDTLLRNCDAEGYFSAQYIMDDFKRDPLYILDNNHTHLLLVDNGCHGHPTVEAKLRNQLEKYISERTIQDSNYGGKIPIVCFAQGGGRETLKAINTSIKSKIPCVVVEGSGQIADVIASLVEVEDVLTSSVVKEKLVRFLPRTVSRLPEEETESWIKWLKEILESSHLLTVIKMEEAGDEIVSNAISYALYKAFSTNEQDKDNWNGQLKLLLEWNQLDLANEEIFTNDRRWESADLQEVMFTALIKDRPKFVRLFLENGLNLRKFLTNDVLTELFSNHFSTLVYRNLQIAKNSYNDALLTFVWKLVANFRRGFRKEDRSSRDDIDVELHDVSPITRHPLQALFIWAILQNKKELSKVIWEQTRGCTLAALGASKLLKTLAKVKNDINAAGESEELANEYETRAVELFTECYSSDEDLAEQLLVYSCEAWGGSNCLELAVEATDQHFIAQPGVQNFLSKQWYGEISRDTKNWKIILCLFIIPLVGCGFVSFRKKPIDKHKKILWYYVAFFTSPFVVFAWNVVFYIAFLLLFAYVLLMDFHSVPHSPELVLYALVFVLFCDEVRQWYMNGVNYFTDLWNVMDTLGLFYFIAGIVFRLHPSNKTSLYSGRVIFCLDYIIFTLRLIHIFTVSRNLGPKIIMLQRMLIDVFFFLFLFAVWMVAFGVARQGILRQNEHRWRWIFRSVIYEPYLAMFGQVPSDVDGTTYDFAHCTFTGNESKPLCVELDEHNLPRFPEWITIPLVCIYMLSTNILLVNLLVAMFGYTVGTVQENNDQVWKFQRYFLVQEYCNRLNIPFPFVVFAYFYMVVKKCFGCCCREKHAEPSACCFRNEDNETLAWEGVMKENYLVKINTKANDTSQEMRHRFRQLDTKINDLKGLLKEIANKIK

Compound	% I (0.5 μM)
CCOP(=O)(OCC)C(Cc1cc(O)c(Cl)cc1F)c1sc2ccccc2c1Br (racemic) [Cpd 231]	98%
CCOP(=O)(OCC)C(Cc1ccc(OC)c(C(F)(F)F)c1)c1sc2ccccc2c1Br (racemic) [Cpd 152]	92%
CCOP(=O)(OCC)C(Cc1ccc(OC(F)(F)F)cc1)c1sc2ccccc2c1Br (stereo not drawn) [Cpd 155, [1-(3-Bromo-benzo[b]thiophen-2-yl)-2-(4-trifluoromethoxyphenyl)-ethyl]-phosphonic acid diethyl ester]	101% and 102%
CC(C)CCOP(=O)(OCCC(C)C)C(Cc1ccc(F)c(F)c1)c1sc2ccccc2c1Br (racemic) [Cpd 211]	97%
(R)-[1-(3-Bromo-benzo[b]thiophen-2-yl)-2-(4-fluoro-phenyl)-ethyl]-phosphonic acid diisopropyl ester [Cpd 240]	98% and 77%
CCOP(=O)(OCC)C(Cc1ccc(F)c(F)c1)c1sc2ccccc2c1-c1cccc(C(N)=O)c1 (racemic) [Cpd 218]	79%
CCOP(=O)(OCC)C(Cc1ccccc1C(F)(F)F)c1sc2ccccc2c1Cl (racemic) [Cpd 279]	97%
CCOP(=O)(OCC)C(Cc1ccc(O)c(F)c1)c1sc2ccccc2c1Br (stereo not drawn) [Cpd 226]	34%

Same assay, conditions: compound at 1 μM; HEK293 cells expressing canine TRPM8, icilin activation

Compound	% I (1 μM)
CCOP(=O)(OCC)C(Cc1cccc(C(F)(F)F)c1Cl)c1sc2ccccc2c1C (stereo not drawn) [Cpd 81]	100% and 87%
CCOP(=O)(OCC)C(Cc1c(Cl)ccc(C)c1F)c1sc2ccccc2c1C (stereo not drawn) [Cpd 60]	100%
CCOP(=O)(CC(C)C)C(Cc1ccc(F)c(F)c1)c1sc2ccccc2c1C (stereo not drawn) [Cpd 6, [2-(3,4-Difluoro-phenyl)-1-(3-methyl-benzo[b]thiophene-2-yl)-ethyl]-isobutyl-phosphonic acid ethyl ester]	100%
CCOP(=O)(OCC)C(Cc1cc(F)c(Cl)cc1Cl)c1sc2ccccc2c1C (stereo not drawn) [Cpd 76]	100%
Cc1c(C(Cc2ccc(F)c(F)c2)P(=O)(OC(C)C)OC(C)C)oc2ccccc12 (stereo not drawn) [Cpd 11]	99%
CCOP(=O)(OCC)C(Cc1ccccc1-c1ccccc1)c1sc2ccccc2c1C (stereo not drawn) [Cpd 115]	69%
CCOP(=O)(OCC)C(Cc1ccc(F)c(F)c1)c1cc2cccnc2s1 (stereo not drawn) [Cpd 131]	28%
CCOP(=O)(OCC)C(Cc1ccccc1Cl)c1cc2ccccc2s1 (stereo not drawn) [Cpd 85]	90%
CCOP(=O)(OCC)C(Cc1ccccc1C)c1sc2ccccc2c1C (stereo not drawn) [Cpd 26]	100%
[2-(3,4-Difluoro-phenyl)-1-(3-methyl-benzo[b]thiophene-2-yl)-ethyl]-[3-(4-methoxy-phenyl)-propyl]-phosphonic acid ethyl ester [Cpd 135]	90%
CCOP(=O)(OCC)C(Cc1ccc(F)c(F)c1)c1sc2c(C(F)(F)F)cccc2c1C (stereo not drawn) [Cpd 116]	64%
CCOP(=O)(OCC)C(Cc1ccccc1F)c1cc2ccccc2s1 (stereo not drawn) [Cpd 80]	93%
[2-(3,4-Difluoro-phenyl)-1-(3-methyl-benzo[b]thiophene-2-yl)-ethyl]-[3-(4-methoxy-phenyl)-propyl]-phosphonic acid ethyl ester [Cpd 136]	91%
CC(C)OP(=O)(OC(C)C)C(Cc1ccccc1F)c1sc2cc(Br)ccc2c1Br (stereo not drawn) [Cpd 199]	81%
CCCP(=O)(CCC)C(OCc1ccc(F)c(F)c1)c1sc2ccccc2c1C (stereo not drawn) [Cpd 42]	100%
CCOP(=O)(OCC)C(Cc1ccc2ccccc2c1)c1sc2ccccc2c1C (stereo not drawn) [Cpd 46]	99%
CCOP(=O)(OCC)C(Cc1ccc2ccccc2c1)c1cc2ccccc2s1 (stereo not drawn) [Cpd 83]	84%

Same assay, conditions: compound at 5 μM; HEK293 cells expressing canine TRPM8, icilin activation

Compound	% I (5 μM)
CCOP(=O)(OCC)C(Cc1ccccc1Cl)c1cc2ccccc2s1 (stereo not drawn) [Cpd 85]	100%
CCOP(=O)(OCC)C(Cc1ccccc1F)c1cc2ccccc2s1 (stereo not drawn) [Cpd 80]	100%
